Assays:
[1] = target: Histamine H1 receptor (Homo sapiens) (UniProt P35367); details: Compound concentration 10.0 uM
[2] = target: T1, Tyrosine-protein kinase ZAP-70 (Homo sapiens) (UniProt P43403); details: Compound concentration 1000.0 nM
T1 sequence (whole entry): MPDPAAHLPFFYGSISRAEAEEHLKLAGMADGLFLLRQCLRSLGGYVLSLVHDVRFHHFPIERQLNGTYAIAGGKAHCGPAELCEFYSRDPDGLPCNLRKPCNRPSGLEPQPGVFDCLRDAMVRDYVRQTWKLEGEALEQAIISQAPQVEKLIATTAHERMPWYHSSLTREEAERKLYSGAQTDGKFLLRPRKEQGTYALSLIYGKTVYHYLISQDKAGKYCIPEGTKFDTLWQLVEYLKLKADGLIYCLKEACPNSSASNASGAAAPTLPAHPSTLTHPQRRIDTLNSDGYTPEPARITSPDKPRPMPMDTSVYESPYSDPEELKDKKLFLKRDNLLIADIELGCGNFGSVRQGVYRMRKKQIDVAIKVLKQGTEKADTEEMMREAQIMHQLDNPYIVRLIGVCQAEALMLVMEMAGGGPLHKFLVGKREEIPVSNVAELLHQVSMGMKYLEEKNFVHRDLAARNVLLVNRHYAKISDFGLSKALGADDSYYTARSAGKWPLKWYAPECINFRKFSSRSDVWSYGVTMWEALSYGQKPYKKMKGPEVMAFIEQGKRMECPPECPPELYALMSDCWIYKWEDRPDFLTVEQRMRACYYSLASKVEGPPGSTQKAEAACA

[3] = target: T2, Dual specificity mitogen-activated protein kinase kinase 7 (Homo sapiens) (UniProt O14733); details: Compound concentration 1000.0 nM
T2 sequence (whole entry): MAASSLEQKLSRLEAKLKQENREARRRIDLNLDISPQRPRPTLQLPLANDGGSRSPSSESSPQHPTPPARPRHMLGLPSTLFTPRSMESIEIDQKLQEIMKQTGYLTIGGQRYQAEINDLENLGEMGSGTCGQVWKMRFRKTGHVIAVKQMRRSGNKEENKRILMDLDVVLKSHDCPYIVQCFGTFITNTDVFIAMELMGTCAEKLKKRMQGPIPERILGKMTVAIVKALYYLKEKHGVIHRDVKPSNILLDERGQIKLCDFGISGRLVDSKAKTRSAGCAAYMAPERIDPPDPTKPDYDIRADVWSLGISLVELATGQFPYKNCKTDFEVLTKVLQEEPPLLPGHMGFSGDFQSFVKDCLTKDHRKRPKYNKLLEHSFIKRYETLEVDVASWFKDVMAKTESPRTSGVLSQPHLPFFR

[4] = target: T3, Serine/threonine-protein kinase TAO2 (Homo sapiens) (UniProt Q9UL54); details: Compound concentration 1000.0 nM
T3 sequence (whole entry): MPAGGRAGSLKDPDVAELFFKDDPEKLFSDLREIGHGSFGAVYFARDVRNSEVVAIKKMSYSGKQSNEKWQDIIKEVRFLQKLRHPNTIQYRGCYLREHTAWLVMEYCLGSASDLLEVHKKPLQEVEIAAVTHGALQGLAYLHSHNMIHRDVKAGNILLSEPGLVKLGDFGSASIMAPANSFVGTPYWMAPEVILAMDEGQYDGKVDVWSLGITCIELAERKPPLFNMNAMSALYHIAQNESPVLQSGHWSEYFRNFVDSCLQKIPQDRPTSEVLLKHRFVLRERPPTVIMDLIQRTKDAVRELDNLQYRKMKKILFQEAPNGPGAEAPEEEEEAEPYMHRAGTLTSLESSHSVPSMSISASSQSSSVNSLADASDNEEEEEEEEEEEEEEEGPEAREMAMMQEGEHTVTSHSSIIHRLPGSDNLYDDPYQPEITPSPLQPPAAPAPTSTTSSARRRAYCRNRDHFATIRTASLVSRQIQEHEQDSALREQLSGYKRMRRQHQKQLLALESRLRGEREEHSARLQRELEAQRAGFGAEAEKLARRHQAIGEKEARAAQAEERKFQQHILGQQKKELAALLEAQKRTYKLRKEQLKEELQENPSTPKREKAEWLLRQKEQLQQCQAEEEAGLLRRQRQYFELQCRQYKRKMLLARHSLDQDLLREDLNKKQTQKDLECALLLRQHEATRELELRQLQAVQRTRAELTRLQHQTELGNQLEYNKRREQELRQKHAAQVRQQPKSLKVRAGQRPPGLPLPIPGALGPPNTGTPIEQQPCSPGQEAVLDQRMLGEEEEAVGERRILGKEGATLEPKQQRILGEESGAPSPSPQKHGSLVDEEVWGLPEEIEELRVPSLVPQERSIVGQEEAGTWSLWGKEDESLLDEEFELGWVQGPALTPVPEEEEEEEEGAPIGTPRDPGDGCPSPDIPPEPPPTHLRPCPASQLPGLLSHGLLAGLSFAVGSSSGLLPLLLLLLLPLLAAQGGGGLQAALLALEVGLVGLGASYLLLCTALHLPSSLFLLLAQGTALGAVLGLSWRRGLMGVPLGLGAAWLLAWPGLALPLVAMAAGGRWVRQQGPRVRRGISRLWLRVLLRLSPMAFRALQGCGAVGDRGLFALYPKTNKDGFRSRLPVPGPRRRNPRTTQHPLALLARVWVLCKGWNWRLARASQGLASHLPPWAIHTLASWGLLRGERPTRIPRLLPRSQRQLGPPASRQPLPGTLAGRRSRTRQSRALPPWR

[5] = target: Non-receptor tyrosine-protein kinase TYK2 (Homo sapiens) (UniProt P29597); details: Compound concentration 1000.0 nM
Non-receptor tyrosine-protein kinase TYK2 (Homo sapiens), sequence (P29597 whole entry): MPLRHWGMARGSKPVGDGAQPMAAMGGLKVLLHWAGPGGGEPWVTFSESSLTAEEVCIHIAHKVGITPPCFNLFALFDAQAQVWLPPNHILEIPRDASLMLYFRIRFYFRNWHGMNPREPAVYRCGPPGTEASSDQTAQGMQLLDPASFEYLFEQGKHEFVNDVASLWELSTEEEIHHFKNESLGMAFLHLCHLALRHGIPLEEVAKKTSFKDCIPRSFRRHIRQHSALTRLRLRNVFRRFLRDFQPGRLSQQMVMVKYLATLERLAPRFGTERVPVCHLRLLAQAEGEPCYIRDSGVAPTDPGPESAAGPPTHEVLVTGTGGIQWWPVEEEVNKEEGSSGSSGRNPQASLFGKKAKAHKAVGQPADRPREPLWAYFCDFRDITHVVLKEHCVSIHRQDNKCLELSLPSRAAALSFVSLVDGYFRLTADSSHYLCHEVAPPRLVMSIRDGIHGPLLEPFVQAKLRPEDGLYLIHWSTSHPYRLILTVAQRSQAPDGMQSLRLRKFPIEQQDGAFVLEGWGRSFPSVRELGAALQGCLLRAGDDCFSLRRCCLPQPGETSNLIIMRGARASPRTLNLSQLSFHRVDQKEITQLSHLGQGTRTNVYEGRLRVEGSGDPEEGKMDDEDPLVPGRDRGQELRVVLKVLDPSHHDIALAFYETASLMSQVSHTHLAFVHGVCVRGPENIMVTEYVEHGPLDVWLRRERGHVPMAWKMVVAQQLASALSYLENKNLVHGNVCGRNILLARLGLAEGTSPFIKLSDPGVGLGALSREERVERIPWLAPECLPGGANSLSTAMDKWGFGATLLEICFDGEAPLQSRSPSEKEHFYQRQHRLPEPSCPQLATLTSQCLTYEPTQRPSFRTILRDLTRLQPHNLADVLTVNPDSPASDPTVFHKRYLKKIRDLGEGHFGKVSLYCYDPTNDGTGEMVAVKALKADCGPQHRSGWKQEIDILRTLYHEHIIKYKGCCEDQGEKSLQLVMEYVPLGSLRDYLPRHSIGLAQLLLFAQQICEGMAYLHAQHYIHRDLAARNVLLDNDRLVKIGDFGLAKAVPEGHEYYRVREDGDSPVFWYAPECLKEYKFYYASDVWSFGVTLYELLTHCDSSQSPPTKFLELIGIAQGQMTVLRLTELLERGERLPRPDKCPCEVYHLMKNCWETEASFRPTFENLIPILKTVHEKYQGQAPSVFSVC

Histamine H1 receptor (Homo sapiens), sequence (P35367 whole entry): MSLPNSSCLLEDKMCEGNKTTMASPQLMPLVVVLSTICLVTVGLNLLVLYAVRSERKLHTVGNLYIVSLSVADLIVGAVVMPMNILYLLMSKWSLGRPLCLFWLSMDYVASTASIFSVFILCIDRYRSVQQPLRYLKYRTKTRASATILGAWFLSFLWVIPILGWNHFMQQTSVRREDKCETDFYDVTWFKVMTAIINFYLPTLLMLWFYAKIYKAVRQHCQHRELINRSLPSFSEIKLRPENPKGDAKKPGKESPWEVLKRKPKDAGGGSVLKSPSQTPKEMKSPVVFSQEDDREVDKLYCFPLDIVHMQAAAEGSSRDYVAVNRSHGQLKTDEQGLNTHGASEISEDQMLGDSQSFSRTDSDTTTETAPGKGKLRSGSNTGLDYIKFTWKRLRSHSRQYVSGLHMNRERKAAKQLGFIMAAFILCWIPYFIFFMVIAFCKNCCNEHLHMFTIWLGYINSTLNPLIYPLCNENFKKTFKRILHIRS

Cc1nc(C2CCN(C(=O)c3ccc(OC(F)(F)F)cc3N)CC2)c2ncc(N3CCN(C)CC3)cc2n1 [BAY-693]
inactive: inhibition [1] 4.99% | residual activity [2] 100% | residual activity [3] 86% | residual activity [4] 100% | residual activity [5] 100%

CN1CCN(c2cnc3c(C4CCN(C(=O)c5ccc(OC(F)(F)F)cc5N)CC4)ncnc3c2)CC1 [BAY-885]
inactive: inhibition [1] 14.6% | residual activity [2] 100% | residual activity [3] 100% | residual activity [4] 100% | residual activity [5] 93%

— ChEMBL document CHEMBL4507268 (2021)
